Assays:
[1] = Heating of crystalline forms, analysed by x-ray powder diffraction; assay type: physicochemical; details: for chemical decomposition on heating: heating/drying at about 100° C.; for crystalline form after heating in an oven: about 30 minutes at about 100° C.
Experimental: X-ray diffraction data were acquired using a Philips powder X-ray diffractometer, Goniometer model 1050/70 at a scanning speed of 2° per minute, with a CUKα radiation of λ=1.5418 Å. The sample was gently ground and dusted over a zero background quartz plate to give a thin layer.
Forms V and VI convert into modafinil Form I upon gentle heating to about 80° C. or above.
Modafinil Form I may be separated from solvents conventionally by filtering or decanting and then drying.
By Heating Modafinil Forms V or VI A small aliquot of Modafinil Forms V and VI are heated separately, for about 30 minutes, in an oven at about 100° C.

[2] = assay type: physicochemical; details: for crystalline form conversion when suspended in water: time and temperature not stated; for crystalline form after suspension in distilled water: distilled water pH about 5.9, stirred about 24 hours at about 37° C.

| Structure (SMILES) | chemical decomposition on heating [1] | crystalline form conversion when suspended in water [2] | crystalline form after suspension in distilled water [2] | crystalline form after heating in an oven [1] | further results |
| --- | --- | --- | --- | --- | --- |
| NC(=O)C[S+]([O-])C(c1ccccc1)c1ccccc1 (racemic) [Form I, (±) 2-[(Diphenylmethyl)sulfinyl]acetamide, reference compound] | without undergoing significant chemical decomposition | – | – | – | crystalline form after drying at elevated temperature ([1]; dried at a temperature as high as 100° C.): without converting to another crystalline or amorphous form |
| NC(=O)C[S+]([O-])C(c1ccccc1)c1ccccc1 (racemic) [Form II, (±) 2-[(Diphenylmethyl)sulfinyl]acetamide] | – | converted into Form I modafinil | – | – | – |
| NC(=O)C[S+]([O-])C(c1ccccc1)c1ccccc1 (racemic) [Form III, (±) 2-[(Diphenylmethyl)sulfinyl]acetamide] | – | converts into modafinil Form II | determined to be modafinil Form II | – | – |
| NC(=O)C[S+]([O-])C(c1ccccc1)c1ccccc1 (racemic) [Form IV, (±) 2-[(Diphenylmethyl)sulfinyl]acetamide] | – | – | determined to be modafinil Form I | – | – |
| NC(=O)C[S+]([O-])C(c1ccccc1)c1ccccc1 (racemic) [Form V, (±) 2-[(Diphenylmethyl)sulfinyl]acetamide] | without significant decomposition | – | – | determined to be Form I | – |
| NC(=O)C[S+]([O-])C(c1ccccc1)c1ccccc1 (racemic) [Form VI, (±) 2-[(Diphenylmethyl)sulfinyl]acetamide] | without significant decomposition | – | – | determined to be Form I | – |

From US7235691B2, “Crystalline forms of modafinil” (priority 2000, dated 2007)
